Measurements taken from paper PMC3848336, “Aurora Isoform Selectivity: Design and Synthesis of Imidazo[4,5-b]pyridine Derivatives as Highly Selective Inhibitors of Aurora-A Kinase in Cells” (Journal of Medicinal Chemistry, 2013).
Where two headings read alike, the source gives them in different places.

How the values were obtained:
Experiment in all cases: Kinase selectivity profiling
Type in all cases: biochemical
TBK1 = TBK1 (Homo sapiens, UniProt Q9UHD2)
Text: (§1) Compound 28c was profiled against a panel of 110 kinases at the International Centre for Protein Kinase Profiling, Division of Signal Transduction Therapy, University of Dundee. Compound 40f was profiled against a panel of 50 kinases (MRC-PPU Express Screen) also at the International Centre for Protein Kinase Profiling.

CAMKKb = CAMKKb (Homo sapiens, UniProt Q96RR4)
Text: as §1

PKCa = PKCa (Homo sapiens, UniProt P17252)
Text: as §1

CK2 = CK2 (Homo sapiens, UniProt P68400)
Text: as §1

SYK = SYK (Homo sapiens, UniProt P43405)
Text: as §1

JNK1 = JNK1 (Homo sapiens, UniProt P45983)
Text: as §1

SmMLCK = SmMLCK (Homo sapiens, UniProt Q15746)
Text: as §1

BTK = BTK (Homo sapiens, UniProt Q06187)
Text: as §1

p38a MAPK = p38a MAPK (Homo sapiens, UniProt Q16539)
Text: as §1

S6K1 = S6K1 (Homo sapiens, UniProt P23443)
Text: as §1

PKD1 = PKD1 (Homo sapiens, UniProt Q15139)
Text: as §1

IGF-1R = IGF-1R (Homo sapiens, UniProt P08069); conditions: read-out: % activity remaining, IGF21R
Text: as §1

HER4 = HER4 (Homo sapiens, UniProt Q15303)
Text: as §1

MKK1 = MKK1 (Homo sapiens, UniProt Q02750)
Text: as §1

SRPK1 = SRPK1 (Homo sapiens, UniProt Q96SB4)
Text: as §1

IRAK4 = IRAK4 (Homo sapiens, UniProt Q9NWZ3)
Text: as §1

NEK6 = NEK6 (Homo sapiens, UniProt Q9HC98)
Text: as §1

RSK1 = RSK1 (Homo sapiens, UniProt Q15418)
Text: as §1

PKA = PKA (Homo sapiens, UniProt P17612)
Text: as §1

MARK3 = MARK3 (Homo sapiens, UniProt P27448)
Text: as §1

SGK1 = SGK1 (Homo sapiens, UniProt O00141)
Text: as §1

EF2K = EF2K (Homo sapiens, UniProt O00418)
Text: as §1

TAK1 = TAK1 (Homo sapiens, UniProt O43318)
Text: as §1

PKBa = PKBa (Homo sapiens, UniProt P31749, S473D)
Text: as §1

MST2 = MST2 (Homo sapiens, UniProt Q13188)
Text: as §1

TrkA = TrkA (Homo sapiens, UniProt P04629)
Text: as §1

PLK1 = PLK1 (Homo sapiens, UniProt P53350)
Text: as §1

MLK3 = MLK3 (Homo sapiens, UniProt Q16584)
Text: as §1

Src = Src (Homo sapiens, UniProt P12931)
Text: as §1

PAK4 = PAK4 (Homo sapiens, UniProt O96013)
Text: as §1

MSK1 = MSK1 (Homo sapiens, UniProt O75582)
Text: as §1

PDK1 = PDK1 (Homo sapiens, UniProt O15530)
Text: as §1

RIPK2 = RIPK2 (Homo sapiens, UniProt O43353)
Text: as §1

JAK2 = JAK2 (Homo sapiens, UniProt O60674)
Text: as §1

PIM1 = PIM1 (Homo sapiens, UniProt P11309)
Text: as §1

CAMK1 = CAMK1 (Homo sapiens, UniProt Q14012)
Text: as §1

GSK3b = GSK3b (Homo sapiens, UniProt P49841)
Text: as §1

HIPK2 = HIPK2 (Homo sapiens, UniProt Q9H2X6)
Text: as §1

EPH-A2 = EPH-A2 (Homo sapiens, UniProt P29317); conditions: read-out: % activity remaining, EPH2A2
Text: as §1

CHK2 = CHK2 (Homo sapiens, UniProt O96017)
Text: as §1

Lck = Lck (Homo sapiens, UniProt P06239)
Text: as §1

LKB1 = LKB1 (Homo sapiens, UniProt Q15831)
Text: as §1

Aurora B = Aurora B (Homo sapiens, UniProt Q96GD4)
[1] = 50-kinase panel (MRC-PPU Express Screen)

PKBa, sequence (P31749 118-480 S473D limits assumed): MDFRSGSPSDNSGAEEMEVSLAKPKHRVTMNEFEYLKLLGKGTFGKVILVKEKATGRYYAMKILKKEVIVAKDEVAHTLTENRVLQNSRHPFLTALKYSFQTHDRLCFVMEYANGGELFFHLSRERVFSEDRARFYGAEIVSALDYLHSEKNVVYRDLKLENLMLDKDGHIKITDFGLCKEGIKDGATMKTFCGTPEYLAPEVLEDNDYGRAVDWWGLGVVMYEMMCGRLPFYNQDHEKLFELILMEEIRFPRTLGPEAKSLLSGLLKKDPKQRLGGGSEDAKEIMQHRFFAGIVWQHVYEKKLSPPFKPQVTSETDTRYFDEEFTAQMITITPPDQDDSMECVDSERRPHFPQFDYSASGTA
GSK3b, sequence (P49841 whole entry): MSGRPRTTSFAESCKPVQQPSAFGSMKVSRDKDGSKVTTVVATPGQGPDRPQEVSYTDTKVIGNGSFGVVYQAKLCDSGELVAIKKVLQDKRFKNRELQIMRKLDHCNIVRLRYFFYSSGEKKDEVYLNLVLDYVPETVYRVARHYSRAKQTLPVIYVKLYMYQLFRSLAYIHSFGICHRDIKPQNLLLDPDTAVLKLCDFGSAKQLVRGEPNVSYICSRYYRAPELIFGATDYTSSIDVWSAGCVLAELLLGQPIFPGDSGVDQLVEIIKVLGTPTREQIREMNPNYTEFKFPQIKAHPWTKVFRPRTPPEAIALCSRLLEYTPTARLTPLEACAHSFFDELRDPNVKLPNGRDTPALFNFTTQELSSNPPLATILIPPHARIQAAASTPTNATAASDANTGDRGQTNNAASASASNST
MST2, sequence (Q13188 whole entry): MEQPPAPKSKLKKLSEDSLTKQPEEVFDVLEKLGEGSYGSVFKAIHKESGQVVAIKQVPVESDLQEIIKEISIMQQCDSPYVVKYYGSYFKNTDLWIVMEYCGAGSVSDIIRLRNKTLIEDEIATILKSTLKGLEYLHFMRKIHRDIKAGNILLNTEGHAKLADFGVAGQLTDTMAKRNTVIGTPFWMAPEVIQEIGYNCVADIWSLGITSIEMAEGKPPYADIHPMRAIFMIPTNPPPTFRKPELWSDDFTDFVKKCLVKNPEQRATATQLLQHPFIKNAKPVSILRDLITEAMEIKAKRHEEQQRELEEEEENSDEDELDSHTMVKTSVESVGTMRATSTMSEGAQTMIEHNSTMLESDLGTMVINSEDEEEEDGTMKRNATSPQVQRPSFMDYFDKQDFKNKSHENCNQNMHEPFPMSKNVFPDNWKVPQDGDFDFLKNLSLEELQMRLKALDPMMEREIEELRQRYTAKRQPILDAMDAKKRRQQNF
JNK1, sequence (P45983 whole entry, species assumed): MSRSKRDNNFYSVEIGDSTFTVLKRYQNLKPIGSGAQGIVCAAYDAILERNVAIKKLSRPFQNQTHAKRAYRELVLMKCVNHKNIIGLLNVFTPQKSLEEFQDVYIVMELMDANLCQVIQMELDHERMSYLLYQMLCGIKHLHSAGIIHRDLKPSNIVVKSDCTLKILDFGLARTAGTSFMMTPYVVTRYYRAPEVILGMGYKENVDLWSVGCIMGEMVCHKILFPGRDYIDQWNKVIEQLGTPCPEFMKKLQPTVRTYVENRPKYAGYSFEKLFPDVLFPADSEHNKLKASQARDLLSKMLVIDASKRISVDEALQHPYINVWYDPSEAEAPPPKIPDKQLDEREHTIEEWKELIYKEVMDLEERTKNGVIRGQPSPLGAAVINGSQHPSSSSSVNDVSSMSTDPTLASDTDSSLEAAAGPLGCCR
HIPK2, sequence (Q9H2X6 whole entry): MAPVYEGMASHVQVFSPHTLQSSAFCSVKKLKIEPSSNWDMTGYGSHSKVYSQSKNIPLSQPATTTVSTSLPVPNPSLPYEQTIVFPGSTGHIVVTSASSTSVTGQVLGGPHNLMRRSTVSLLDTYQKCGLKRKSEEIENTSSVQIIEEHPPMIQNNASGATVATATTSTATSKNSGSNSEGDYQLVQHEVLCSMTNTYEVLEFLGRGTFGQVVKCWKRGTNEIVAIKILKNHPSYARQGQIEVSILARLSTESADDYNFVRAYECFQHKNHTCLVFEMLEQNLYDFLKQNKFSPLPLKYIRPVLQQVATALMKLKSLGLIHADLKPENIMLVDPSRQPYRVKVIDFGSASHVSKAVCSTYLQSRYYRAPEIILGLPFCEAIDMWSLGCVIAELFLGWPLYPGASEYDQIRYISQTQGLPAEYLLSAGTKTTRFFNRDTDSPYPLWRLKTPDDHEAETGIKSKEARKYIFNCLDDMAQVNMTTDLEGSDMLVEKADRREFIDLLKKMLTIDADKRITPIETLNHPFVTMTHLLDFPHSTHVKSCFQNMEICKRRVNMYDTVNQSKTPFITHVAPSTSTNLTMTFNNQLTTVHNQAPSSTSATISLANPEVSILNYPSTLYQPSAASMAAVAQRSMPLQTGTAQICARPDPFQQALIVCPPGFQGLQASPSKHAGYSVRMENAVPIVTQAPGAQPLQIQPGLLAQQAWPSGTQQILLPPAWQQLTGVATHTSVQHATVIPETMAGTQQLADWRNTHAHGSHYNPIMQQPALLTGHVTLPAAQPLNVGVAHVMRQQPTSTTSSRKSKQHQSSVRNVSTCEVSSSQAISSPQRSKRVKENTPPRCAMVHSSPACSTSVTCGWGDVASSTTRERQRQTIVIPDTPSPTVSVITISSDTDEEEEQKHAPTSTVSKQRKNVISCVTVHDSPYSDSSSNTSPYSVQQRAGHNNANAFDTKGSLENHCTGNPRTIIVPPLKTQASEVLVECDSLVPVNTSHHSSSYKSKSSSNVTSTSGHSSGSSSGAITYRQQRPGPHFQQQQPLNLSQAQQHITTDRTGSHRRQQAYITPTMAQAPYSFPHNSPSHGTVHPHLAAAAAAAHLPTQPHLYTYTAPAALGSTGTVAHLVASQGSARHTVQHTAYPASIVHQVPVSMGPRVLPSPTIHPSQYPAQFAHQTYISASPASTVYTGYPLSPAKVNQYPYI
TBK1, sequence (Q9UHD2 whole entry): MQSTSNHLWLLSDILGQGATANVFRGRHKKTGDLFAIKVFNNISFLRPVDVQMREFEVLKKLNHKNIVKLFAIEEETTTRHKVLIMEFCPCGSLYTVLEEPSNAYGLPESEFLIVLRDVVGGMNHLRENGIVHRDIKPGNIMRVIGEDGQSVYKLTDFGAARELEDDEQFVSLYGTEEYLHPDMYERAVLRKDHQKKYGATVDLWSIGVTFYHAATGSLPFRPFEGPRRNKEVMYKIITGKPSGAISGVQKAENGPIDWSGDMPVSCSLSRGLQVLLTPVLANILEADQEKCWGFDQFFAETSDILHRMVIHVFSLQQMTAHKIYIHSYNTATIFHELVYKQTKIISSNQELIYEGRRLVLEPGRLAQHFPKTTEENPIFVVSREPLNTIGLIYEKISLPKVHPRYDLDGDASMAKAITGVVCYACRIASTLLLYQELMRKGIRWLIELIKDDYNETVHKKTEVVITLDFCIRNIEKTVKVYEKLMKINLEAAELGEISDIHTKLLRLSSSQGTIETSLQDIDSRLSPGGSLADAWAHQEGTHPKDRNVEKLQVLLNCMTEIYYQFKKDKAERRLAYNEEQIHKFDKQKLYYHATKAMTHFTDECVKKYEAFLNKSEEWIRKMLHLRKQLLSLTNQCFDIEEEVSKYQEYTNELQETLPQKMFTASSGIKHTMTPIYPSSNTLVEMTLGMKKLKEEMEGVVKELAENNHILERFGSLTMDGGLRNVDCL
IGF-1R, sequence (P08069 31-1367): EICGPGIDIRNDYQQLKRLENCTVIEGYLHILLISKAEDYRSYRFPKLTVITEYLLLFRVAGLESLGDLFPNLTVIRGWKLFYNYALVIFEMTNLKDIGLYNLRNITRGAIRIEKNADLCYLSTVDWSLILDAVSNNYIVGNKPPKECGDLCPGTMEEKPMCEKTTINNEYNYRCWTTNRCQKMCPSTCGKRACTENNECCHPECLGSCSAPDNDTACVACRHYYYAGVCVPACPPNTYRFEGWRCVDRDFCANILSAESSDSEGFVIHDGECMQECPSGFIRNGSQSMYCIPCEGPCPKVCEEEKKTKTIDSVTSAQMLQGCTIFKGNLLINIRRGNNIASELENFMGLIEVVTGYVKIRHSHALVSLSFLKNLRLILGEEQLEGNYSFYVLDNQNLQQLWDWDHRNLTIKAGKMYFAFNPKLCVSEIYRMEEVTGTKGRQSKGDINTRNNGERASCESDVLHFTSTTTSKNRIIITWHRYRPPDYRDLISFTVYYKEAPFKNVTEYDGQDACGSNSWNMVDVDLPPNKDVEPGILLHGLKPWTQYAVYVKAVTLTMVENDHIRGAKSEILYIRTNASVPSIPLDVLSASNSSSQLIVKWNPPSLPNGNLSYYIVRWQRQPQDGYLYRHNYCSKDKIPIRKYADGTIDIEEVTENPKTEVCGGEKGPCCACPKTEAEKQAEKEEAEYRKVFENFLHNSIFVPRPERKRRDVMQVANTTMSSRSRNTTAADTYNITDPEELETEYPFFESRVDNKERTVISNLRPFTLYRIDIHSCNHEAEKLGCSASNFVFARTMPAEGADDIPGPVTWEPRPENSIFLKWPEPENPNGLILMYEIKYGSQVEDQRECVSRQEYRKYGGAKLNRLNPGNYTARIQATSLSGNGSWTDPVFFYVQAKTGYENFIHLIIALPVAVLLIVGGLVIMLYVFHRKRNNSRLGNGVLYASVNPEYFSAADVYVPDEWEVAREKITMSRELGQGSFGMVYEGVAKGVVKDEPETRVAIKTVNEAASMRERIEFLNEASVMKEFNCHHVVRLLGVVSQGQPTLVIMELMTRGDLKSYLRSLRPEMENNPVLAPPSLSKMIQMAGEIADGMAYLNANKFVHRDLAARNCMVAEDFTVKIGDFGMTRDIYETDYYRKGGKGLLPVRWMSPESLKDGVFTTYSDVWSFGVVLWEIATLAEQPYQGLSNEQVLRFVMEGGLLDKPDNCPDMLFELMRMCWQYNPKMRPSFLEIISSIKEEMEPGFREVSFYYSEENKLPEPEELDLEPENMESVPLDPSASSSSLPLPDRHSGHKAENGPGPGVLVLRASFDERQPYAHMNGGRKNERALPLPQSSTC

Compound: Cc1nn(C)cc1-c1nc2c(Oc3ccc(C(=O)Nc4ccccc4)cc3)c(Cl)cnc2[nH]1 [compound 28c, 4-((6-Chloro-2-(1,3-dimethyl-1H-pyrazol-4-yl)-3H-imidazo[4,5-b]pyridin-7-yl)oxy)-N-phenylbenzamide]
- remaining activity at 1 µM (TBK1; 110-kinase panel): 86%
- remaining activity at 1 µM (CAMKKb; 110-kinase panel): 86%
- remaining activity at 1 µM (PKCa; 110-kinase panel): 110%
- remaining activity at 1 µM (CK2; 110-kinase panel): 108%
- remaining activity at 1 µM (SYK; 110-kinase panel): 117%
- remaining activity at 1 µM (JNK1; 110-kinase panel): 92%
- remaining activity at 1 µM (SmMLCK; 110-kinase panel): 91%
- remaining activity at 1 µM (BTK; 110-kinase panel): 110%
- remaining activity at 1 µM (p38a MAPK; 110-kinase panel): 91%
- remaining activity at 1 µM (S6K1; 110-kinase panel): 81%
- remaining activity at 1 µM (PKD1; 110-kinase panel): 109%
- remaining activity at 1 µM (IGF-1R; 110-kinase panel): 98%
- remaining activity at 1 µM (HER4; 110-kinase panel): 95%
- remaining activity at 1 µM (MKK1; 110-kinase panel): 77%
- remaining activity at 1 µM (SRPK1; 110-kinase panel): 89%
- remaining activity at 1 µM (IRAK4; 110-kinase panel): 95%
- remaining activity at 1 µM (NEK6; 110-kinase panel): 129%
- remaining activity at 1 µM (RSK1; 110-kinase panel): 88%
- remaining activity at 1 µM (PKA; 110-kinase panel): 101%
- remaining activity at 1 µM (MARK3; 110-kinase panel): 83%
- remaining activity at 1 µM (SGK1; 110-kinase panel): 99%
- remaining activity at 1 µM (EF2K; 110-kinase panel): 93%
- remaining activity at 1 µM (TAK1; 110-kinase panel): 31%
- remaining activity at 1 µM (PKBa; 110-kinase panel): 105%
- remaining activity at 1 µM (MST2; 110-kinase panel): 106%
- remaining activity at 1 µM (TrkA; 110-kinase panel): 100%
- remaining activity at 1 µM (PLK1; 110-kinase panel): 107%
- remaining activity at 1 µM (MLK3; 110-kinase panel): 46%
- remaining activity at 1 µM (Src; 110-kinase panel): 80%
- remaining activity at 1 µM (PAK4; 110-kinase panel): 82%
- remaining activity at 1 µM (MSK1; 110-kinase panel): 89%
- remaining activity at 1 µM (PDK1; 110-kinase panel): 87%
- remaining activity at 1 µM (RIPK2; 110-kinase panel): 98%
- remaining activity at 1 µM (JAK2; 110-kinase panel): 63%
- remaining activity at 1 µM (PIM1; 110-kinase panel): 99%
- remaining activity at 1 µM (CAMK1; 110-kinase panel): 100%
- remaining activity at 1 µM (GSK3b; 110-kinase panel): 8%
- remaining activity at 1 µM (HIPK2; 110-kinase panel): 83%
- remaining activity at 1 µM (EPH-A2; 110-kinase panel): 138%
- remaining activity at 1 µM (CHK2; 110-kinase panel): 111%
- remaining activity at 1 µM (Lck; 110-kinase panel): 110%
- remaining activity at 1 µM (LKB1; 110-kinase panel): 97%
- remaining activity at 1 µM (Aurora B; 110-kinase panel): 25%

Compound: Cc1nn(C)cc1-c1nc2c(Oc3ccc(C(=O)NC4CCC4)cc3)c(Cl)cnc2[nH]1 [compound 40f, 4-((6-Chloro-2-(1,3-dimethyl-1H-pyrazol-4-yl)-3H-imidazo[4,5-b]pyridin-7-yl)oxy)-N-cyclobutylbenzamide]
- remaining activity at 1 µM (TBK1; [1]): 93%
- remaining activity at 1 µM (CAMKKb; [1]): 86%
- remaining activity at 1 µM (PKCa; [1]): 96%
- remaining activity at 1 µM (CK2; [1]): 93%
- remaining activity at 1 µM (SYK; [1]): 84%
- remaining activity at 1 µM (JNK1; [1]): 100%
- remaining activity at 1 µM (SmMLCK; [1]): 87%
- remaining activity at 1 µM (BTK; [1]): 101%
- remaining activity at 1 µM (p38a MAPK; [1]): 107%
- remaining activity at 1 µM (S6K1; [1]): 81%
- remaining activity at 1 µM (PKD1; [1]): 113%
- remaining activity at 1 µM (IGF-1R; [1]): 78%
- remaining activity at 1 µM (HER4; [1]): 92%
- remaining activity at 1 µM (MKK1; [1]): 94%
- remaining activity at 1 µM (SRPK1; [1]): 95%
- remaining activity at 1 µM (IRAK4; [1]): 89%
- remaining activity at 1 µM (NEK6; [1]): 90%
- remaining activity at 1 µM (RSK1; [1]): 90%
- remaining activity at 1 µM (PKA; [1]): 90%
- remaining activity at 1 µM (MARK3; [1]): 107%
- remaining activity at 1 µM (SGK1; [1]): 85%
- remaining activity at 1 µM (EF2K; [1]): 100%
- remaining activity at 1 µM (TAK1; [1]): 59%
- remaining activity at 1 µM (PKBa; [1]): 96%
- remaining activity at 1 µM (MST2; [1]): 141%
- remaining activity at 1 µM (TrkA; [1]): 58%
- remaining activity at 1 µM (PLK1; [1]): 104%
- remaining activity at 1 µM (MLK3; [1]): 31%
- remaining activity at 1 µM (Src; [1]): 86%
- remaining activity at 1 µM (PAK4; [1]): 89%
- remaining activity at 1 µM (MSK1; [1]): 94%
- remaining activity at 1 µM (PDK1; [1]): 86%
- remaining activity at 1 µM (RIPK2; [1]): 107%
- remaining activity at 1 µM (JAK2; [1]): 75%
- remaining activity at 1 µM (PIM1; [1]): 87%
- remaining activity at 1 µM (CAMK1; [1]): 85%
- remaining activity at 1 µM (GSK3b; [1]): 25%
- remaining activity at 1 µM (HIPK2; [1]): 98%
- remaining activity at 1 µM (EPH-A2; [1]): 88%
- remaining activity at 1 µM (CHK2; [1]): 85%
- remaining activity at 1 µM (Lck; [1]): 95%
- remaining activity at 1 µM (LKB1; [1]): 108%
- remaining activity at 1 µM (Aurora B; [1]): 66%
